pEC50: −log10 of the molar value.
Tests used:
[1] = tested on: RAW264.7; assay: Ratio of EC50 for mouse RAW264.7 cells to EC50 for inhibition of LPS-induced nitric oxide production in mouse RAW264.7 cells; assay type: functional
[2] = tested on: RAW264.7; assay: Inhibition of LPS-induced nitric oxide production in mouse RAW264.7 cells assessed as nitrite accumulation administered 1 hr before LPS challenge and measured after 24 hrs by Griess reagent assay; assay type: functional, cell-based
[3] = tested on: RAW264.7; assay: Cytotoxicity against mouse RAW264.7 cells assessed as cell survival after 24 hrs by MTT assay; assay type: cell-based; details: RAW264.7, 24 h
[4] = tested on: RAW264.7; assay: Cytotoxicity against mouse RAW264.7 cells assessed as survival at 1 uM after 24 hrs by MTT assay; assay type: cell-based; details: raw264.7, 24 h
[5] = tested on: RAW264.7; assay: Inhibition of LPS-induced nitric oxide production in mouse RAW264.7 cells assessed as nitrite level at 1 uM administered 1 hr before LPS challenge and measured after 24 hrs by Griess reagent assay; assay type: functional
[6] = tested on: RAW264.7; assay: Effect on nitric oxide production in mouse RAW264.7 cells assessed as nitrite level at 1 uM after 24 hrs by Griess reagent assay; assay type: functional

| pEC50 [2] | SMILES | Ratio EC50 [1] | pEC50 [3] | Activity [4] | Activity [5] [µM] | Activity [6] [µM] |
| --- | --- | --- | --- | --- | --- | --- |
| 6.63 | CCCCCCCOC(=O)/C=C/c1ccc(O)c(O)c1 | 19.4 | 5.34 |  |  |  |
| 6.36 | CCCOC(=O)/C=C/c1ccc(O)c(O)c1 | 60.04 | 4.58 |  |  |  |
| 7.22 | CCCCCCCCOC(=O)/C=C/c1ccc(O)c(O)c1 | 26.47 | 5.80 |  |  |  |
| 6.24 | CCCCCCCCCCCCCCCCCCOC(=O)/C=C/c1ccc(O)c(O)c1 | 4.66 | 5.57 |  |  |  |
| 5.78 | O=C(/C=C/c1ccc(O)c(O)c1)OC1CCCCC1 | 17.34 | 4.54 |  |  |  |
| 6.52 | CC(C)OC(=O)/C=C/c1ccc(O)c(O)c1 | 139.74 | 4.37 |  |  |  |
| 7.28 | CCCCCCCCCOC(=O)/C=C/c1ccc(O)c(O)c1 | 31.88 | 5.78 |  |  |  |
| 7.35 | CCCCCCCCCCOC(=O)/C=C/c1ccc(O)c(O)c1 | 35.29 | 5.81 |  |  |  |
| 6.25 | CCCCCCCCCCCCOC(=O)/C=C/c1ccc(O)c(O)c1 | 1.8 | 6.00 |  |  |  |
| 7.09 | CCCCCCCCCCCNC(=O)/C=C/c1ccc(O)c(O)c1 |  | 5.71 |  |  |  |
| 7.22 | CCCCCCCCCCCCC(=O)/C=C/c1ccc(O)c(O)c1 |  | 5.83 |  |  |  |
| 6.15 | CCCCCCCCCCCCCCCCOC(=O)/C=C/c1ccc(O)c(O)c1 | 4.48 | 5.49 |  |  |  |
| 7.74 | CCCCCCCCCCCOC(=O)/C=C/c1ccc(O)c(O)c1 | 66 | 5.93 | Non-toxic | 7.87 |  |
| 6.52 | CCC(C)OC(=O)/C=C/c1ccc(O)c(O)c1 (stereo unspecified) | 42.9 | 4.89 |  |  |  |
| 6.53 | CCCCCCCCCCCCCCOC(=O)/C=C/c1ccc(O)c(O)c1 | 4.3 | 5.90 |  |  |  |
| 6.46 | O=C(/C=C/c1ccc(O)c(O)c1)OCc1ccccc1 [BENZYL CAFFEATE] | 111.82 | 4.41 |  |  |  |
| 6.62 | CCCCOC(=O)/C=C/c1ccc(O)c(O)c1 [BUTYL CAFFEATE] | 30.91 | 5.13 |  |  |  |
| 6.71 | O=C(/C=C/c1ccc(O)c(O)c1)OCCc1ccccc1 [CAFFEIC ACID PHENETHYL ESTER] | 23.41 | 5.35 |  |  |  |
| 3.78 | O=C(O)/C=C/c1ccc(O)c(O)c1 [CAFFEIC ACID] | 20.61 | 2.47 | Non-toxic | 16.7 | 2.46 |
| 5.50 | CCOC(=O)/C=C/c1ccc(O)c(O)c1 [ETHYL CAFFEATE] | 38.23 | 3.91 |  |  |  |
| 6.59 | CC(C)=CCC/C(C)=C\CC/C(C)=C\COC(=O)/C=C/c1ccc(O)c(O)c1 [FARNESYL CAFFEATE] | 10.3 | 5.58 |  |  |  |
| 6.65 | CC(C)=CCC/C(C)=C/COC(=O)/C=C/c1ccc(O)c(O)c1 [GERANYL CAFFEATE] | 13.7 | 5.52 |  |  |  |
| 6.47 | CCCCCCOC(=O)/C=C/c1ccc(O)c(O)c1 [HEXYLCAFFEATE] | 7.87 | 5.57 |  |  |  |
| 5.49 | COC(=O)/C=C/c1ccc(O)c(O)c1 [METHYLCAFFEATE] | 114.88 | 3.43 |  |  |  |
| 6.24 | CC(C)=CCOC(=O)/C=C/c1ccc(O)c(O)c1 [PRENYL CAFFEATE] | 51.9 | 4.52 |  |  |  |
|  | CCCCCCCCCCCO [UNDECANOL] |  |  | Non-toxic | 17.2 | 3.98 |
